Data on eleven compounds can be found in US5635486A, “Ophthalmic composition comprising a sleep adjusting substance” (priority 1990, dated 1997).

For data set [1] the following is noted: injected into an eyeball; axonal flow; cited from earlier work.
The conditions of data set [2]: into a cerebral ventricle, rabbit; cited from earlier work.
For another data set, the system named is mice. The data set is described as follows: Locomotor activity of mice after instillation of ophthalmic medicament to the eye (Automex, total activity ratio per hour vs saline). Format: in vivo, mouse (ICR male). Conditions: for sleep inducing or inhibiting activity (in words): by instillation to mouse eye; for pain or itch in the eyes as cause of the sleep inhibition / total activity ratio / locomotor activity (in words) / Total Activity ratio per hour / time when the mice started to move: instilled to mouse eye; for Total Activity ratio per hour: 19:30-20:30. As to the method: Three ICR male mice were put in a cage and bred under the condition of a day-and-night cycle of every 12 hours (the daytime: from 7:35 to 19:35; the nighttime: from 19:35 to 7:35) for an experiment.
In this manner, the mice were habituated to the instillation by administering the saline every day. After the same activity pattern appeared for two days continuously, an ophthalmic medicament containing a desired sleep adjusting substance was instilled for consecutive two days. The ophthalmic medicament was prepared by dissolving the sleep adjusting substance in saline. […] The locomotor activity (unit: count) of mice was measured every 10 minutes by using a measuring device for the locomotor activity of an experimental animal "Automex" (produced by Tokai Irika). The locomotor activity was measured by putting a mouse on the measuring device. Every time any of the mice moved, a counter of the device cumulated the number of the movements. Thus, the larger cumulated number reflected more energetic activity. Such a measurement was conducted twice (for two days). An average value of the locomotor activity at each time was calculated and the results were plotted to obtain a graph, with time as the abscissas and the average locomotor activity as the ordinates. This graph depicts an activity pattern of the mice as a function of an administration of the ophthalmic medicament. A total of the locomotor activity (i.e., an area below the curve in the graph) per one hour between 19: 30 which is 30 minutes after the administration and 20:30 was calculated. In the same manner, as for the mice with the administration of saline alone, a total locomotor activity per the same one hour period as above was calculated. The ratio (%) of the calculated total locomotor activity per one hour of the mice with saline alone to that of the mice with the administration of the ophthalmic medicament (hereinafter called the "total activity ratio") was obtained. The mice whose activity patterns were not stable during the habituation to the administration of saline were not used in the following examples.

A further data set deals with human. Conditions: cited from earlier work.
For data set [3] the following is noted: cited from earlier work; for sleep effect: species and route not stated.
The test system of another data set is animal. The note with it: in an animal; cited from earlier work.
The subject of the next data set is neurons. The note with it: cited from earlier work.
The conditions of data set [4]: cited from earlier work.
For data set [5] the following is noted: cited from earlier work. This is another data set of the same source.
For data set [6] the following is noted: into a lateral ventricle, rat; cited from earlier work.
Where [7] appears, read: administered into a cerebral ventricle.

Read-outs that look alike come from different tables or passages of the source.

Take “horseradish peroxidase: an enzyme with a molecular weight of about 40,000, frequently used as a tracer”: the “uptake by ganglion cells and transport to the suprachiasmatic nucleus” value in data set [1] is “uptaken by the ganglion cells, and then transported to the suprachiasmatic nucleus through the axonal flow”.

With delta-sleep-inducing peptide [DSIP], in data set [2], the sleep effect result is given as “induce sleep”. In addition, in the data set with mice (100 μM), the “sleep inducing or inhibiting activity (in words)” value is listed as “exerted a sleep inhibiting activity” and the “pain or itch in the eyes as cause of the sleep inhibition” value is listed as “certainly not due to any pain or itch in the eyes”. In addition, in the data set on mice (100 μM in saline containing 0.1% bovine serum albumin), the total activity ratio came out at 130%. Moreover, in the data set on human (administered to a human), the anti-stress activity result is on record as “anti-stress activity such as causing sleep inhibition”.

As for `O=c1cc[nH]c(=O)[nH]1` [Uracil, uracil, reference compound], in the data set with mice (100 μM), the “locomotor activity (in words)” value was “did not decrease”.

For `CCCCC[C@H](O)/C=C/[C@H]1[C@H](O)CC(=O)[C@@H]1C/C=C\CCCC(=O)O` [PGE2, prostaglandin E2], the sleep effect entry is “inhibits sleep” in [3] and “sleep inhibiting activity” in [3] (listed as prostaglandin E2).

Take arginine vasotocin [AVT]: the sleep effect entry is given as “induces non-REM sleep” in the data set with animal and “REM sleep” in the data set on human (in a human). The “amount of serotonin in the brain” value in data set [3] (mechanism of sleep induction) is given as “increasing the amount of serotonin in the brain”.

Consider `O=c1ccn([C@@H]2O[C@H](CO)[C@@H](O)[C@H]2O)c(=O)[nH]1` [Uridine, uridine], for which the “excitation of the neurons” value in the data set on neurons was “induces or inhibits excitation of the neurons”. The sleep effect entry in data set [4] (injection of only 10 pmole into a cerebral ventricle) is reported as “induces non-REM sleep”. For the same compound, in the data set with mice (100 μM), the “sleep inducing or inhibiting activity (in words)” value was “showed a sleep inducing activity”, the “locomotor activity (in words)” value is given as “remarkably decreased”, the “time when the mice started to move” value is recorded as “shifted backward” and the “Total Activity ratio per hour” value is reported as 53 % of control. For the same compound, in the data set on mice (10 μM), the “Total Activity ratio per hour” value is 63 % of control. Besides, the “Total Activity ratio per hour” value with mice (30 μM) is 57 % of control.

On to `N[C@@H](Cc1c[nH]c2ccccc12)C(=O)O` [tryptophan], for which the “effectiveness of oral administration” value in [5] is “somewhat effective”.

Take `Nc1ccn([C@@H]2O[C@H](CO)[C@@H](O)[C@H]2O)c(=O)n1` [cytidine]: in data set [4] (setting [7]), the arousal hours entry is listed as “increase arousal hours” and the total sleep hours result is recorded as “decrease total sleep hours”. In the data set with mice (100 μM), the “sleep inducing or inhibiting activity (in words)” value is “can inhibit sleep”, the “locomotor activity (in words)” value is listed as “completely disappeared temporarily after the instillation”, the “pain or itch in the eyes as cause of the sleep inhibition” value was “not caused by a pain or an itch in the eyes” and the “time when the mice started to move” value is reported as “advanced”. The total activity ratio in the data set with mice (100 μM, vs saline control) was found to be 127%.

Regarding `C1CCNCC1` [Piperidine, piperidine], the total activity ratio in the data set with mice (100 μM, vs saline control) is given as 72%. Moreover, the sleep effect entry in data set [3] is “sleep inducing activity”.

On to `CCCCC[C@H](O)/C=C/[C@H]1C(=O)C[C@H](O)[C@@H]1C/C=C\CCCC(=O)O` [PGD2, prostaglandin D2], for which, in the data set on mice (100 μM), the “time when the mice started to move” value is listed as “shifted backward”. The total activity ratio in the data set with mice (100 μM, vs saline control) is listed as 78%. Besides, in [3], the sleep effect entry was “strong sleep inducing substance”.

Regarding `Nc1ncnc2c1ncn2[C@@H]1O[C@H](CO)[C@@H](O)[C@H]1O` [Adenosine, adenosine], in [6], the sleep effect result is on record as “induce non-REM sleep”.
